In US20170168056A1, “METHODS AND COMPOSITIONS FOR DETECTING AND MODULATING CANCER CELLS” (Massachusetts Institute of Technology, priority 2015, published 2017):
Positions count from the first letter of the chain named.

Legend:
[1] = test system: MDA-MB-231 cells; test: Cell viability assay (Prestoblue) in MDA-MB-231 cells expressing GFP, GFP-Mena or GFP-Mena^INV; conditions: 72 h; for effect of Mena or Mena^INV expression on fraction of viable cells / response to drug: range of concentrations
Description: Cell viability assays were performed in a 96-well plate. 5,000 cells were plated per well and treated with drug 24 hours later. Cell viability was assayed 72 hours later using the PrestoBlue Cell Viability Reagent (Life Technologies), according to manufacturer's protocol. Fluorescence was measured and normalized to cells exposed to vehicle. The activity area was calculated from doseresponse plots using Matlab. All measurements were repeated in triplicate.

[2] = test system: MDA-MB-231 xenograft tumors; test: Xenograft tumor growth in NOD-SCID mice with chemotherapy treatment; type: in vivo, mouse; conditions: three doses Taxol/paclitaxel 10 mg/kg or two doses Doxorubicin 5 mg/kg
Description: Mena or Mena^INV expression blocks Taxol efficacy on tumors in treated animals. Mice with xenograft tumors were generated by injection of MDA-MB-231 cells expressing GFP (Control), GFP-Mena (Mena) or GFP-Mena^INV (Mena^INV) into the mammary fat pads of NOD-SCID mice. […] Tumor size was measured before and after treatment. […] These in vivo findings are consistent with the results obtained in the in vitro data, and indicate that Men/Mena^INV promotes resistance to Taxol as judged by tumor growth.
Xenograft tumor generation and in vivo chemotherapy treatment. All animal experiments were approved by the MIT Division of Comparative Medicine. 2 million MDA-MB-231 cells expressing different MENA isoforms (in PBS and 20% collagen I) were injected into the 4th right mammary fat pad of six week-old female NOD-SCID mice (Taconic). When the tumors reached 1 cm in diameter, mice were treated every five days with either three doses of paclitaxel at 10 mg/kg in 1% DMSO, 3% PEG (MW 400), 1% Tween 80 in PBS by intra-peritoneal injection. In parallel, mice were treated with only in 1% DMSO, 3% PEG (MW 400), 1% Tween 80 in PBS as a vehicle control. One day after the last injection, tumors were measured and mice were use for intravital imaging and then sacrificed. Their tumors and lungs were fixed in 10% formalin overnight, their bone marrow were collected using PBS and cultured in DMEM with 10% fetal bovine serum. The number of tumor cell colonies in cultured bone morrow was counted 1 month after collection. The number of metastasis in each lobe of the lung were counted from lung H&E stained sections visualized by light microscopy and counted by two blinded individuals. Each tumor group contained 3-5 mice.
MENA isoform expression is associated with increased tumor growth in vivo during paclitaxel treatment. Whether MENA-associated paclitaxel resistance could also be observed in vivo was examined. Xenograft tumors were generated by injecting MDA-MB-231 cells expressing MENA isoforms into the mammary fat pads of NOD-SCID mice. Mice were treated with paclitaxel once tumors reached 1 cm in diameter (FIG. 30A).

[3] = test system: microtubules (MT); test: Immunofluorescence ratio of Glu-MT (stable) to Tyr-MT (dynamic); type: cell-based, human; conditions: 231-MENA^INV cells, 24 hours
Description: Immunofluorescence. Glass bottom dishes (Mattek) were coated with Collagen at 0.1 mg/mL diluted in PBS and 50 μg/mL FN for 1 hour at 37° C. Cells were plated for 1 hour, and then treated with paclitaxel alone or in combination with MEKi for 24 hours. Cells were fixed for 20 minutes in 4% paraformaldehyde in PHEM buffer with 0.1% Gluteraldehyde, and then quenched with sodium borohydrate for 5 minutes. Cells were blocked with 2% BSA in TBS-0.1%TritonX-100 for 30 minutes, and incubated with primary antibodies and then secondary antibodies for 1 hour each, at room temperature. Z series of images were taken on an Applied Precision DeltaVision microscope using Softworx acquisition, an Olympus 60×1.4 NA plan apo objective and a Photometrics CoolSNAP HQ camera. Images were deconvolved using Deltavision Softworx software and objective specific point spread function. Images were analyzed with ImageJ, where the whole cell intensity levels of Tyr- or Glu-MT was measured. Images are pooled from at least 3 independent experiments.
Paclitaxel promotes cell death by increasing the stability of MTs, and pathways driving increased MT dynamics are known to promote resistance to taxanes. Therefore, MT structure and dynamics in MENA isoform expressing cells was examined during paclitaxel treatment. […] Post-translational modification of MTs can regulate their dynamics, and antibodies that detect such modifications can be used to infer the relative dynamics of MT populations; in particular, MT tyrosination indicates a dynamic MT state, while de-tyrosination of MTs is associated with increased stability. The relative abundance of stable (Glu-MT) vs. dynamic (Tyr-MT) MTs was measured in individual cells by immunofluorescence with anti-Glu-MT and anti-Tyr-MT antibodies (FIGS. 37A, 37B).
(§1) The MAPK signaling cascade is among the key pathways known to interact with MTs. Both ERK1/2 interact with MTs; MT stabilization by paclitaxel increases ERK phosphorylation and, in turn, ERK pathway activation increases MT dynamics.

[4] = test system: ERK, Akt; test: Western blot for pERK Y204, ERK, pAkt473 and Akt; type: cell-based, human; conditions: 231-MENA^INV cells; 10 nM paclitaxel, 0.1 μM MEKi, 72 hours
Description: (§2) Western blot. Cells were lysed in 25 mM Tris, 150 mM NaCl, 10% glycerol, 1% NP 40 and […] EDTA with a protease Mini-complete protease inhibitors (Roche) and a phosphatase inhibitor cocktail (PhosSTOP, Roche) at 4° C. for 20 minutes. Protein lysates were separated by SDS-PAGE, transferred to a nitrocellulose membrane and blocked with Odyssey Blocking Buffer (LiCor). Membranes were incubated with primary antibody overnight at 4° C. and Licor secondary antibodies at room temperature for 1 hour. Protein level intensity was measured with Image J.
as §1

[5] = test system: MDA-MB-231 cells; test: Proliferation assay (cell count) with combinations of paclitaxel and MEKi; type: cell-based, human
[6] = test system: Mena; test: Mena expression in cultured cells after taxane treatment (Western blot, FACS of GFP); type: cell-based, human; conditions: MDA-MB-231 populations expressing GFP, GFP-MENA or GFP-MENA^INV
Description: Taxol treatment induces increased Mena protein expression in vitro and in vivo. As high level of Mena or Mena^INV expression correlated with low response to Taxo, we hypothesized that Taxol treatment might affect Mena expression. […]. After 72 h of treatment with the drug, the expression level of Mena was 70% higher than in vehicle-treated cells.
as §2
Paclitaxel treatment selects for high MENA expression in vitro and in vivo. The Examples so far indicate that increased MENA or MENA^INV expression levels are associated with reduced responses to paclitaxel. The effect of paclitaxel treatment on levels of MENA expression in cell populations in vitro and in vivo was examined. First, endogenous MENA expression by Western Blot in 5 breast cancer cell lines that were exposed to 100 nM of paclitaxel or a vehicle control were analyzed (FIG. 33A).

[7] = test system: SKBr3 cells; test: Wound closure assay, SKBr3 cells with Mena^11a-specific shRNA; type: cell-based, human; conditions: twenty-four hours
Description: (§3) The Mena^11a knockdown procedure employed shRNAs was based on 97-mer oligos (Invitrogen) comprising the shRNAs amplified by PCR with primers having EcoRI/XhoI sites, and were cloned into the pMSCV-miR30-MLS-GFP vector (gift from Michael Hemann, Koch Institute, MIT). Oligo sequences are:
(§4) Mena^11a-specific depletion enhances cell migration and membrane protrusion. Previously, the effects of Mena^11a on cancer cell motility were evaluated in assays utilizing ectopic expression. To study the role of endogenously expressed Mena^11a on cancer cell motility, we used Mena^11a-KD cells, including T47D and SKBr3 human breast cancer cells which have >80% reduction of Mena^11a protein levels (FIG. 15A-B, 15E-F), in wound closure assays. […] T47D cells yielded similar results (FIG. 15C-D), although complete closure of the control T47D cells took longer than with SKBr3 cells. […] Therefore, depletion of the Mena^11a isoform from cells that normally express both Mena and Mena^11a increased cell migration rates.

[8] = test system: T47D cells; test: Wound closure assay and morphology (circularity), T47D cells with Mena^11a-specific shRNA; type: cell-based, human; conditions: for percent of cell free region filled (gap closure): 48 hours; for circularity of cells at the free edge of the monolayer: perfect circularity=1
Text: as §3
Signal intensities from antibodies or rhodamine-labeled barbed ends along the cell edge were quantified with a contour-based ImageJ macro. We measured the distribution of signal along the membrane plotted as a function of distance from the cell edge (mean±SEM) and the sum of the intensities in the first 0.65 μm from the cell edge. Circularity measures were performed by manually tracing the cells at the free edge of the epithelial monolayer, and by using the circularity plugin built in ImageJ. In this analysis, a circularity value of 1 indicates a perfect circle while, as the value approaches 0, it indicates an elongated cell shape. For quantitative imaging, we used the same hardware configuration and exposure time for all cell lines analyzed in the same experiment. […] Extracted pixel intensities were exported to Microsoft Excel for analysis and Graph-Pad Prism for graphing.
as §4
Consistent with changes in migration, we observed that the morphology of T47D Mena^11a-KD cells differed from control-KD cells, specifically at the free edge of the monolayer (FIG. 151).

## N.N.[Cl][Pt][Cl] [Cisplatin]
[1]
  effect of Mena or Mena^INV expression on fraction of viable cells / response to drug: neither GFP-Mena nor GFP-MenaINV expression affected the fraction of viable MDA-MB-231 cells differently than the GFP controls
[1]; listed as cisplatin
  effect of Mena or Mena^INV expression on fraction of viable cells / response to drug: neither MENA nor MENA^INV expression affected the response

## COc1cccc2c1C(=O)c1c(O)c3c(c(O)c1C2=O)C[C@@](O)(C(=O)CO)C[C@@H]3O[C@H]1C[C@H](N)[C@H](O)[C@H](C)O1 [Doxorubicin]
[2]; GFP (Control) tumors
  growth of control tumors compared to vehicle: significantly decreased growth of control tumors
[2]; Mena or Mena^INV expressing tumors
  growth / response of Mena or Mena^INV tumors: decreased response
[1]
  effect of Mena or Mena^INV expression on fraction of viable cells / response to drug: neither MENA nor MENA^INV expression affected the response

## COc1cc2c(cc1OC)CN(CCc1ccc(-n3nnc(-c4cc(OC)c(OC)cc4NC(=O)c4cc(=O)c5ccccc5o4)n3)cc1)CC2 [HM30181]
[1]; 231-Control cells, HM30181 100 nM
  fraction of viable cells on co-treatment with 100 nM paclitaxel: negligibly affected
[1]; 231-MENA^INV cells, 100 nM paclitaxel
  paclitaxel efficacy on co-treatment with MDR1 inhibitor: did not increase paclitaxel efficacy

## O=C(NOC[C@H](O)CO)c1ccc(F)c(F)c1Nc1ccc(I)cc1F [PD0325901]
[3]; paclitaxel plus MEKi
  stable MTs relative to dynamic MTs, both drugs simultaneously: induced increases in stable MTs relative to dynamic MTs
[3]; single drug
  stable MTs relative to dynamic MTs, either drug alone: had no effect
[4]
  paclitaxel-induced ERK phosphorylation: blocked
[5]; 231-MENA and 231-MENA^INV cells
  concentrations needed to obtain high levels of cell death relative to 231-Control cells: higher concentrations of each drug were needed
[5]; all cell lines, 72 hours, both drugs simultaneously
  combination of paclitaxel and MEKi in proliferation assay (cell death): significant additive effects

## CC(=O)O[C@@]12CO[C@@H]1C[C@H](O)[C@@]1(C)C(=O)[C@H](O)C3=C(C)[C@@H](OC(=O)[C@H](O)[C@@H](NC(=O)OC(C)(C)C)c4ccccc4)C[C@@](O)([C@@H](OC(=O)c4ccccc4)[C@H]21)C3(C)C [docetaxel]
[6]
  FACS analysis of GFP expression levels after taxane treatment: selected for cells expressing higher levels of GFP-MENA or GFP-MENA^INV, but not of GFP

B1: sh-1C: paired control shRNA for sh-1, SEQ ID NO. 7 (nucleic acid)
guide: TGCTGTTGACAGTGAGCGAATGATTCCTTAAACAGCCCAATAGTGAAGCCACAGATGTATTGGGCTGTTTAAGGAATCATGTGCCTACTGCCTCGGA
[7]
  percent of initially cell-free region filled (gap closure): 49.03% ±4.2
[8]
  percent of cell free region filled (gap closure): 50.41% ±3.7
  circularity of cells at the free edge of the monolayer: 0.683

B2: sh-1: shRNA targeting the 11a insertion of Mena^11a, SEQ ID NO. 6 (nucleic acid)
guide: B1 guide with A19C, C27A, A31C, C36A, G64T, T69G, G73T, G81A
[7]
  percent of initially cell-free region filled (gap closure): 74.76% ±4.8
[8]
  percent of cell free region filled (gap closure): 78.39% ±4.8
  circularity of cells at the free edge of the monolayer: 0.614

B3: sh-2C: paired control shRNA for sh-2, SEQ ID NO. 9 (nucleic acid)
guide: TGCTGTTGACAGTGAGCGAAACAGGTCATAGGATTAATTATAGTGAAGCCACAGATGTATAATTAATCCTATGACCTGTTCTGCCTACTGCCTCGGA
[7]
  percent of initially cell-free region filled (gap closure): 55.24% ±1.8
[8]
  percent of cell free region filled (gap closure): 40.38% ±4.2
  circularity of cells at the free edge of the monolayer: 0.640

B4: sh-2: shRNA targeting the 11a insertion of Mena^11a, SEQ ID NO. 8 (nucleic acid)
guide: B3 guide with A19C, A28C, G31T, A36C, T64G, C69A, T72G, C81A
[7]
  percent of initially cell-free region filled (gap closure): 77.84% ±3.6
[8]
  percent of cell free region filled (gap closure): 70.20% ±8.8
  circularity of cells at the free edge of the monolayer: 0.509
